The values below come from ChEMBL document CHEMBL5104091, “Pyridazine as a privileged structure: An updated review on anticancer activity of pyridazine containing bioactive molecules” (Eur J Med Chem, 2021).

In brackets after ≈: the same amount, converted by molar mass.

In experiment [1] the test system is P815. Kind of experiment: Cytotoxicity against mouse P815 cells assessed as cell growth inhibition measured after 48 hrs by MTT assay. As to conditions: P815, 48 h. In kind it is functional, cell-based. For orientation: Tetrazolium assays rely on reduction of a dye to a coloured formazan, in cell work by metabolically active cells.
Experiment [2] concerns MCF7. The experiment can be described thus: Cytotoxicity against human MCF7 cells assessed as cell growth inhibition measured after 48 hrs by MTT assay. In kind it is functional, cell-based. The following applies: MCF7, 48 h.
The test system of experiment [3] is Hep 3B2. Kind of experiment: Induction of apoptosis in human Hep3B cells assessed as early apoptotic cells incubated for 24 hrs by annexin-V/FITC and propidium iodide staining based flow cytometry analysis. In kind it is functional. (In general: A flow cytometer gives signals particle by particle.)
In experiment [4] the test system is Hep 3B2. Kind of experiment: Antiproliferative activity against human Hep3B assessed as cell growth inhibition measured after 72 hrs by CCK-8 assay. In kind it is functional, cell-based.
Experiment [5] has as its system MCF7. The experiment can be described thus: Induction of apoptosis in human MCF7 cells assessed as early apoptotic cells incubated for 24 hrs by annexin-V/FITC and propidium iodide staining based flow cytometry analysis. In kind it is functional.
The test system of experiment [6] is MCF7. Kind of experiment: Antiproliferative activity against human MCF7 assessed as cell growth inhibition measured after 72 hrs by CCK-8 assay. As to conditions: MCF7, 72 h. In kind it is functional, cell-based.
The target in experiment [7] is T1, Vascular endothelial growth factor receptor 2 (Homo sapiens, UniProt P35968). The experiment can be described thus: Binding affinity to VEGFR2 (unknown origin) at 10 uM using ULight-4E-BP1 peptide as substrate incubated for 1 hr in presence of ATP by fluorescence based analysis relative to control.
Experiment [8] deals with MCF7. Kind of experiment: Cytotoxicity against human MCF7 cells assessed as cell growth inhibition by colorimetric method. In kind it is functional, cell-based.
The test system of experiment [9] is MDA-MB-231. Kind of experiment: Antiproliferative activity against human MDA-MB-231 cells assessed as cell growth inhibition measured after 48 hrs by WST-1 assay. In kind it is functional, cell-based. As to conditions: MDA-MB-231, 48 h.
The test system of experiment [10] is ECa-109 cell line. Kind of experiment: Antiproliferative activity against human EC109 cells assessed as inhibition of cell growth. In kind it is functional, cell-based.
Experiment [11] has as its system MCF7. Kind of experiment: Antiproliferative activity against human MCF7 cells assessed as cell growth inhibition incubated for 48 hrs by MTT assay. In kind it is functional, cell-based. The following applies: MCF7, 48 h.
Experiment [12] relates to HepG2. The experiment can be described thus: Antiproliferative activity against human HepG2 cells assessed as cell growth inhibition incubated for 48 hrs by MTT assay. In kind it is functional, cell-based. As to conditions: HepG2, 48 h.
Experiment [13] concerns MCF-12A. Kind of experiment: Antiproliferative activity against human MCF-12A cells assessed as cell growth inhibition. In kind it is functional, cell-based.
Experiment [14] can be described thus: Inhibition of tyrosine kinase (unknown origin). Also on record: species or system Homo sapiens.
Experiment [15] deals with MCF7. Kind of experiment: Antiproliferative activity against human MCF7 cells assessed as cell growth inhibition. In kind it is functional, cell-based.
The subject of experiment [16] is HepG2. The experiment can be described thus: Antiproliferative activity against human HepG2 cells assessed as cell growth inhibition incubated for 24 hrs by MTT assay. In kind it is functional, cell-based. As to conditions: HepG2, 24 h.
The test system of experiment [17] is MCF7. The experiment can be described thus: Antiproliferative activity against human MCF7 cells assessed as cell growth inhibition incubated for 24 hrs by MTT assay. In kind it is functional, cell-based. The following applies: MCF7, 24 h.
Experiment [18] has as its system HCT-116. The experiment can be described thus: Cytotoxicity against human HCT-116 cells assessed as cell growth inhibition by colorimetric method. In kind it is functional, cell-based.
For experiment [19], the target named is Poly [ADP-ribose] polymerase 1 (Homo sapiens, UniProt P09874). Kind of experiment: Inhibition of PARP1 (unknown origin) by colorimetric assay.
Experiment [20] relates to MDA-MB-468. The experiment can be described thus: Cytotoxicity against human MDA-MB-468 cells assessed as cell growth reduction measured after 48 hrs by MTT assay. As to conditions: MDA-MB-468, 48 h. In kind it is functional, cell-based.
The test system of experiment [21] is SK-MEL. Kind of experiment: Cytotoxicity against human SK-MEL cells assessed as cell growth inhibition. In kind it is functional, cell-based.
Experiment [22] has as its system KB. Kind of experiment: Cytotoxicity against human KB cells assessed as cell growth inhibition. In kind it is functional, cell-based.
The subject of experiment [23] is HCT-116. The experiment can be described thus: Cytotoxicity against human HCT-116 cells assessed as cell growth inhibition measured after 48 hrs by SRB assay. In kind it is functional, cell-based. As to conditions: HCT-116, 48 h. For orientation: Sulforhodamine B stains cellular protein and so reports cell mass.
The nature of experiment [24]: In vivo inhibition of VEGFR2 in Swiss albino mouse implanted with mouse Ehrlich cells incubated for 24 hrs by immunohistochemical staining based analysis relative to control. In kind it is functional.
Experiment [25] addresses Vascular endothelial growth factor receptor 3 (Homo sapiens) (UniProt P35916). The experiment can be described thus: Inhibition of VEGFR3 (unknown origin) at 10 uM by ELISA relative to control.
For experiment [26], the system named is HepG2. Kind of experiment: Cytotoxicity against human HepG2 cells assessed as cell growth inhibition by colorimetric method. In kind it is functional, cell-based.
Experiment [27] has as its target T1, Vascular endothelial growth factor receptor 2. The experiment can be described thus: Inhibition of VEGFR2 (unknown origin) using poly (Glu,Tyr) 4:1 as substrate measured after 5 mins in presence of ATP by ELISA method.
Experiment [28] concerns MCF7. Kind of experiment: Cytotoxicity against human MCF7 cells assessed as cell growth inhibition measured after 72 hrs by MTT assay. The following applies: MCF7, 72 h. In kind it is functional, cell-based.
Experiment [29] deals with HCT-116. Kind of experiment: Cytotoxicity against human HCT-116 cells assessed as cell growth inhibition measured after 72 hrs by MTT assay. In kind it is functional, cell-based. The following applies: HCT-116, 72 h.
The subject of experiment [30] is HepG2. The experiment can be described thus: Cytotoxicity against human HepG2 cells assessed as cell growth inhibition after 48 hrs by SRB assay. In kind it is functional, cell-based. As to conditions: HepG2, 48 h.

T1 sequence (P35968 whole entry): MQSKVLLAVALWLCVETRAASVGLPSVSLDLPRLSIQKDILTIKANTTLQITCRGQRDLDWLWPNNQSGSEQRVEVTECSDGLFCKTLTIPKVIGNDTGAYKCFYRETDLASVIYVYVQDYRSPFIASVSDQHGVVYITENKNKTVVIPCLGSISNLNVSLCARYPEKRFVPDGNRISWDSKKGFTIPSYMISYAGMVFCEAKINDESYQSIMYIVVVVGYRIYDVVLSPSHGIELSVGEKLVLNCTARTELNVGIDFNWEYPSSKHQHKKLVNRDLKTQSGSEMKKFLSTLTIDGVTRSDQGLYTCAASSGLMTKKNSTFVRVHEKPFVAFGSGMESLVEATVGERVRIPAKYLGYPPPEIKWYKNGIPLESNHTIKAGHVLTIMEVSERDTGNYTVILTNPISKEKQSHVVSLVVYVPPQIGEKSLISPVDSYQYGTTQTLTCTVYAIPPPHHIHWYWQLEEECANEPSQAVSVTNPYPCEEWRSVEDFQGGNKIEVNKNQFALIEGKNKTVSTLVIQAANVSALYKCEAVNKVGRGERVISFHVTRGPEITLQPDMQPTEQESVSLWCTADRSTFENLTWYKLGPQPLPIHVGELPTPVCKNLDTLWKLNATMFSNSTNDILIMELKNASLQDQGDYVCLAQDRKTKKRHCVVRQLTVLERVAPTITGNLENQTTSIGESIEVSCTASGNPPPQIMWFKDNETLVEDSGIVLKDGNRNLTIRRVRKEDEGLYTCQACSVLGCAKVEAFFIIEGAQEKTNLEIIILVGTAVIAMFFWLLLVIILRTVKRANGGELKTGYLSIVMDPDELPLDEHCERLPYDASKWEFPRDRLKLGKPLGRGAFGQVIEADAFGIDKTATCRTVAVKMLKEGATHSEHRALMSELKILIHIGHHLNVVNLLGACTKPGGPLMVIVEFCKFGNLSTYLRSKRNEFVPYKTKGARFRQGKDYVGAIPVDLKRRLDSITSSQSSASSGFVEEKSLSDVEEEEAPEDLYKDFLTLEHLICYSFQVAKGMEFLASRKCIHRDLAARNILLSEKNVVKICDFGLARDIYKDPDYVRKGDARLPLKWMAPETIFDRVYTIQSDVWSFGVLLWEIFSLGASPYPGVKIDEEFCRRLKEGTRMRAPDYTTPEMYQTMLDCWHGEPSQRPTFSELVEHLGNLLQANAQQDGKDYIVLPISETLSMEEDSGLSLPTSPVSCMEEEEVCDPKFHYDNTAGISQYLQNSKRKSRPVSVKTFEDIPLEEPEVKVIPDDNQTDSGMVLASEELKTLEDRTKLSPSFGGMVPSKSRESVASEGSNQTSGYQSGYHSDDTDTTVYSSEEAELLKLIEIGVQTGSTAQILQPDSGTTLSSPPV
Poly [ADP-ribose] polymerase 1, sequence (P09874 whole entry): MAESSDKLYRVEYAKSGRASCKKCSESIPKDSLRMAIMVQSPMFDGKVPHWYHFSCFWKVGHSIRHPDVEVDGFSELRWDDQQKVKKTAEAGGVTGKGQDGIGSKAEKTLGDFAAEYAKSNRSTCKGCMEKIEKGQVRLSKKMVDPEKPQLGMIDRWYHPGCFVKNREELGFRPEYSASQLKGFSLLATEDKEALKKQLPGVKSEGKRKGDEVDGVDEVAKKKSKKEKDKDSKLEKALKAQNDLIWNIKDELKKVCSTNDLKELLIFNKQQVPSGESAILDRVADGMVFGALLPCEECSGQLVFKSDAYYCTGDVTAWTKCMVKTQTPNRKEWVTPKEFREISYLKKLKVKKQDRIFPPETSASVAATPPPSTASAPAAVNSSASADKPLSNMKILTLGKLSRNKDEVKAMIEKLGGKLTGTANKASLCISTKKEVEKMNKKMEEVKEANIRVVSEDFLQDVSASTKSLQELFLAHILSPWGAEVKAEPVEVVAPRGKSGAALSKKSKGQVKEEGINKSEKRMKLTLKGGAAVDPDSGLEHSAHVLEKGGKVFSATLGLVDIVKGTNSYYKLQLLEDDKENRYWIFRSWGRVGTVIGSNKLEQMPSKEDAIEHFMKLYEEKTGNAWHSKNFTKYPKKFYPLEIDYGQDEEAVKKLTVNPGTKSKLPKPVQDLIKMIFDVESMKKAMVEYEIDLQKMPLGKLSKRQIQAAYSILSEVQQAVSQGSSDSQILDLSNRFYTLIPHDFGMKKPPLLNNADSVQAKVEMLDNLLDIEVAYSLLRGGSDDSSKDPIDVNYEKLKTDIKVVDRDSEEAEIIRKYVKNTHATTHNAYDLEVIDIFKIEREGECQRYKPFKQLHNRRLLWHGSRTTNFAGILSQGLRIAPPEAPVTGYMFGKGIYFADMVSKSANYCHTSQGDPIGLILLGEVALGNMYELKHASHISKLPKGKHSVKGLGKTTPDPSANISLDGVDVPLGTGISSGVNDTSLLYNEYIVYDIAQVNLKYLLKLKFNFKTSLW
Vascular endothelial growth factor receptor 3 (Homo sapiens), sequence (P35916 whole entry): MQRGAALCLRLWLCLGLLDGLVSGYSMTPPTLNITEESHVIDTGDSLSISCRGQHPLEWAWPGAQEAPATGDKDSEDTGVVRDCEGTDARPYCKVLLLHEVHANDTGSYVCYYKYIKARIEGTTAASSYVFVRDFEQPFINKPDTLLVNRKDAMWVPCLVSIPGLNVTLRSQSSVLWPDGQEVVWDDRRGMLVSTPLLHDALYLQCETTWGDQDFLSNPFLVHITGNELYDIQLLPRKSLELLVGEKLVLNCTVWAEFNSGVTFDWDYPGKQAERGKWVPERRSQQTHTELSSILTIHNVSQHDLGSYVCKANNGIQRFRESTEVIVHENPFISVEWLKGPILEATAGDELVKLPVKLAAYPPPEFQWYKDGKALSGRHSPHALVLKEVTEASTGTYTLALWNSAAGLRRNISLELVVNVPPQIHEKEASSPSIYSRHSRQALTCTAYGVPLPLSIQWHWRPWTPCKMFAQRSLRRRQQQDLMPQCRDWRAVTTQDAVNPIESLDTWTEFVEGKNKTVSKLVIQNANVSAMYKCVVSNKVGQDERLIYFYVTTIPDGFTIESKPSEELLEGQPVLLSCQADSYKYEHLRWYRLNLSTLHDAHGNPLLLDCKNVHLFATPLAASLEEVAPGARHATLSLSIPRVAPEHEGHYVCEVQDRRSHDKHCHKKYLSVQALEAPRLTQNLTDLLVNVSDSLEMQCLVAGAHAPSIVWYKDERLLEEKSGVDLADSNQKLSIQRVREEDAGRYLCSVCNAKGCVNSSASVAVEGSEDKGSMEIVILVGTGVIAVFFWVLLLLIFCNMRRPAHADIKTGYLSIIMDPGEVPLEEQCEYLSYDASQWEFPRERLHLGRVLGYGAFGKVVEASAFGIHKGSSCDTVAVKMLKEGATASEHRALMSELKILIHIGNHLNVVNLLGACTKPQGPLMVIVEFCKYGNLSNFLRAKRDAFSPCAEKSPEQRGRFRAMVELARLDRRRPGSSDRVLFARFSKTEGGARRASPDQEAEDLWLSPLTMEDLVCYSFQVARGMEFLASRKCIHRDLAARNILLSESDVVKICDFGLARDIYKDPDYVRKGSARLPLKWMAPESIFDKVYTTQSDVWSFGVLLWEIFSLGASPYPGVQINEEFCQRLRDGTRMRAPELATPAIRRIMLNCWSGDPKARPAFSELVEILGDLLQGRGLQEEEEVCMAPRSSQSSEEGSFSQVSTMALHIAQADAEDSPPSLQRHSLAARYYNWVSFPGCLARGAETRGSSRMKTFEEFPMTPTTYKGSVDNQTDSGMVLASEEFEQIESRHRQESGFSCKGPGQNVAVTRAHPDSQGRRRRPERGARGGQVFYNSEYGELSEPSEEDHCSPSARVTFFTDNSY

With `CCCOc1ccc2oc(Cc3cc(=O)[nH]nc3C)cc2c1`, the half-inhibitory concentration (IC50) in [1] worked out at 35 µM; in [2], 14.5 µM.

Take `C=CC[Se]c1ccc(S(=O)(=O)CCC)nn1`: the Activity in [3] is listed as 5.46%; in experiment [5], 9.28%. In addition, the IC50 in experiment [4] is 30.7 µM; in experiment [6] it was 33.8 µM.

Consider `O=C(Nc1ccc(Cl)c(Cl)c1)Nc1nnc2ccc(Cl)nn12`, for which, in experiment [7], the Activity was 3%.

Turning to `CC(=O)C(=NNc1ccc(Nc2nnc(-c3ccc(C)c(C)c3)cc2-c2c(-c3ccccc3)[nH]c3ccccc23)cc1)C(C)=O`, the IC50 in experiment [8] was 2.2 µg/mL (≈ 3.71 µM).

With `O=C1Nc2ccc(F)cc2/C1=N/Nc1nnc(-c2ccccc2)c2ccccc12`, the IC50 in experiment [9] worked out at 12 µM.

Turning to `O=c1[nH]cc(F)c(=O)[nH]1` [FLUOROURACIL], the IC50 was found to be 14.4 µM in experiment [10] and 29.4 µM in experiment [9].

With `O=C1Nc2ccc(F)cc2/C1=N/Nc1nnc(-c2ccc(Cl)cc2)c2ccccc12`, in experiment [9], the 50% inhibitory concentration (IC50) was determined as 12 µM.

Consider `COc1ccc(NC(=O)CSc2nnc(-c3ccccc3)c3ccccc23)cc1`, for which, in [10] (read-out: IC50), the IC50 is 8.13 µM.

For `COc1ccc(-c2cc(Cc3ccccc3O)c(=O)[nH]n2)cc1`, the results for the half-inhibitory concentration (IC50) in experiment [11] and in experiment [12] were greater than 37 µM and 26.4 µM, respectively.

Turning to `CCc1ccc2oc(Cc3cc(=O)[nH]nc3C)cc2c1`, the IC50 in experiment [1] is 35 µM; in experiment [2], 14.5 µM.

Consider `O=C1Nc2ccccc2/C1=N/Nc1nnc(-c2ccccc2)c2ccccc12`, for which, in experiment [9], the IC50 is 12 µM.

For `Cc1ccc2nnc(C(=O)NNC(N)=S)c(N)c2c1`, the IC50 is 64.2 µM in [13], 0.34 µM in experiment [14] and 0.11 µM in experiment [15].

On to `Cc1cc(-c2ccc(OCC(=O)NNc3nnc(COc4ccc(-c5ccc(Cl)c(C)c5)nn4)o3)nn2)ccc1Cl`, for which the IC50 is 8.67 µM in [16] and 9.41 µM in experiment [17].

With `Cc1ccc(-c2cc(-c3c(-c4ccccc4)[nH]c4ccccc34)c(Nc3ccc(/N=N/c4c(C)nc(N)nc4C)cc3)nn2)cc1C`, in [18], the IC50 came to 2.1 µg/mL (≈ 3.41 µM).

For the molecule `O=C(c1ccc(Cc2n[nH]c(=O)c3cccnc23)cc1)N1CCCC1`, the IC50 in experiment [19] is 0.0367 µM.

In the case of `Cc1n[nH]c(=S)cc1Cc1cc2cc(Cl)ccc2o1`, the IC50 in [20] came to 11.5 µM.

Turning to `COc1ccc(-c2cc(Cc3ccc(Cl)cc3)c(=O)[nH]n2)cc1`, the IC50 was greater than 37 µM in experiment [11] and 14.8 µM in experiment [12].

Regarding `Cc1n[nH]c(=O)cc1Cc1cc2cc(C(C)C)ccc2o1`, the figures for the IC50 in experiment [1] and in [2] were 35 µM and 14.5 µM, respectively.

As for `O=c1c(CNc2ccccc2)cc(OS(=O)(=O)C(F)(F)F)nn1Cc1ccccc1`, the IC50 in [21] was 3.3 µM; in experiment [22] it was 2.8 µM.

For `Cc1n[nH]c(=O)cc1Cc1cc2ccccc2o1`, the figures for the half-maximal inhibitory concentration (IC50) in experiment [1] and in experiment [2] were 35 µM and 14.5 µM, respectively.

Regarding `N=C(N)NS(=O)(=O)c1ccc(Nc2ccc(Nc3cccc(NC(=O)CCCl)c3)nn2)cc1`, the IC50 in experiment [23] amounted to 39 µM. The “inhibition (INH)” value in experiment [24] is given as 10%. The inhibition in experiment [25] was found to be 89.6%.

On to `CCOC(=O)/C(C#N)=N/Nc1ccc(Nc2nnc(-c3ccc(C)c(C)c3)cc2-c2c(-c3ccccc3)[nH]c3ccccc23)cc1`, for which, in experiment [26], the concentration for half-maximal inhibition (IC50) is 3.1 µg/mL (≈ 5.12 µM).

Consider `Cc1n[nH]c(=O)cc1Cc1cc2cc(Cl)cc(Br)c2o1`, for which the IC50 in [20] was 3.1 µM.

In the case of `O=C(NNc1nn2cnnc2c2ccccc12)NC1CCCCC1`, the IC50 was 0.11 µM in [27], 8.8 µM in experiment [28] and 6.04 µM in experiment [29].

As for `Cc1n[nH]c(=O)cc1Cc1cc2cc(Cl)ccc2o1`, the IC50 in experiment [20] came out at 9.01 µM.

Regarding `COC(=O)CNC(=O)Cn1nc(Cc2ccccc2)c2ccccc2c1=O`, in [30], the IC50 was 5.7 µg/mL (≈ 15.6 µM).

As usually defined, the IC50 is the point on the concentration scale where inhibition reaches its midpoint. Broadly, the inhibition is the drop in the measured response relative to a control, in per cent. Read a low inhibition as a weak effect.
